This note sets out measurements from patent US20200237670A1, “DYE-STABILIZED NANOPARTICLES AND METHODS OF THEIR MANUFACTURE AND THERAPEUTIC USE” (Memorial Sloan Kettering Cancer Center, priority 2015, published 2020).

Molecules are shown by their SMILES.

In data set [1] the test system is BAEC, bEnd3, SB2, 3T3, BMDM and RAW264 cells. Nature of the data set: In vitro uptake of IR783-SFB nanoparticles (fluorescence microscopy). The conditions noted are these: 2 h, 30 μg/ml particles or equivalent free dye. Type of data set: cell-based. The method, then:
Bone marrow derived macrophages (BMDM), RAW264 macrophages, and 3T3 fibroblasts did take up the nanoparticles efficiently. […] FIG. 4B depicts quantitative analysis of fluorescence intensity in the cell lines was conducted using ImageJ v1.40 (NIH, USA). The mean fluorescence intensities are expressed in arbitrary units per square micron. The increased uptake by endothelial cells and cancer cells as opposed to macrophages and fibroblasts is about 4 fold. FIG. 4C depicts confirmation of the differential uptake between cell lines, 3T3 fibroblasts (GFP) were co-cultured with SB2 liver cancer cells (RFP) to confluence and incubated with nanoparticles for 30 min. The cell morphology of the co-culture can be seen in bright light (upper left, DIC) and fluorescence channel (upper right).
The uptake of the sorafenib-IR783 nanoparticles (IR783-SFB) was tested in 6 cell types: endothelial cells (BAEC and bEnd3 cell line), liver HCC cells (SB2 cells, derived from the in vivo model), fibroblasts (3T3), and macrophages (BMDM and RAW264). The cells were incubated for 2 hours with 30 μg/ml and as a control with an equivalent amount of free IR783. The cells were washed and stained with Cell Mask (Life Sciences) for membrane staining and DAPI for nuclear staining. The cells were imaged with a florescence microscope equipped with an Indocyanine Green filter set, as depicted in FIGS. 4A-4B.

Data set [2] deals with MYC-driven autochthonous murine hepatic tumor. The data set is described as follows: MYC/β-catenin driven liver tumor model: targeting and biodistribution. Type of data set: in vivo, FVB mice. The conditions noted are these: near-IR fluorescence of livers 24 h after i.v. injection, sodium salt. The method, then:
Sorafenib-containing nanoparticles were tested in vivo for imaging and treatment of hepatocellular carcinoma in an orthotopic model. FVB mice were transfected by hydrodynamic injection on day 0 with plasmids to C-Myc and beta-catenin to inoculate liver tumors. FIG. 5A depicts mice bearing liver tumors and healthy mice were injected with IR783-SFB (for example, at 20 mg/kg) at day 21 after inoculation. After 24 hours the livers were extracted and imaged using an IVIS Preclinical In Vivo Imaging System (Perkin Elmer) in fluorescence imaging mode. […] The tumors were also imaged by their GFP expression (right panel). […] The GFP expression in the tumors was also imaged (right panel).
Next, the biodistribution of INPs in a MYC-driven murine hepatic tumor model was evaluated. To generate autochthonous liver tumors, Sleeping Beauty transposon vectors encoding c-Myc and mutant β-catenin (coupled to GFP) were hydrodynamically delivered into immunocompetent FVB mice along with a vector encoding Sleeping Beauty transposase as described herein.
Hydrodynamic transfection was performed. […] Tumors were evaluated using fluorescence imaging (IVIS imaging system, Xenogen Corp., Hopkinton, Mass.) and immunohistochemistry (H&E). Tumor volume was measured using a caliper.

Data set [3] deals with endothelial cells; 3T3-GFP / SB2 co-culture. The data set is described as follows: Photodynamic therapy in cell culture (NIR irradiation). Type of data set: cell-based. The following applies: 30 min incubation, 1 min xenon lamp, imaged after 24 h. As for the experimental part:
The IR783-SFB nanoparticles were tested for the application of photodynamic therapy. The […] properties of the dyes may provide an added therapeutic benefit of the targeted nanoparticles. Endothelial and cancer cells were incubated with the nanoparticles for 30 min and then washed and exposed to NIR light from a Xenon lamp for 1 min. […] FIG. 8A depicts endothelial cells that were incubated for 30 min with NP and irradiated for 1 min with a xenon lamp (Xcite) using an ICG filter set (Chroma). […] After 24 h, the morphology of the irradiated area was altered and cells detached after washing (upper right).

Data set [4] has as its system MYC-driven autochthonous murine hepatic tumor. Nature of the data set: MYC/β-catenin driven liver tumor model: anti-tumor efficacy. The data set is classed as in vivo, FVB mice. The conditions noted are these: 30 mg/kg sorafenib p.o. or as INP i.v., weekly for three weeks; endpoint about day 60. As for the experimental part:
For example, here 20 FVB mice were administered a hydrodynamic injection on day 0 with plasmids to C-Myc and beta-catenin to initiate liver tumors. The efficacy of IR783-SFB was compared to oral SFB. Treatments started at day 21 after inoculation and were administrated once weekly for 3 weeks.
To test the therapeutic potential of the INPs in vivo, the anti-tumor efficacy of equivalent drug doses in the liver cancer mouse model described above were either delivered intravenously via INPs or the orally administered free drug. Sorafenib or sorafenib INPs were injected weekly over the course of three weeks. […] Furthermore, quantitative measures of liver weight, tumor volume, and GFP emission confirmed virtually complete tumor eradication in INP-treated livers (FIGS. 12D-12F).
Hydrodynamic transfection was performed. Specifically, 10 μg pT3-EF1a-c-myc, 10 μg pT3-EF1a-β-CateninT41A-IRES-GFP and CMV-SB13 Sleeping Beauty transposase (1:5 ratio) were mixed in sterile saline solution. A total volume of plasmid-saline solution mix corresponding to 10% of the body weight was injected into the lateral tail vein of 6- to 8-week old female FVB/N mice (Jackson Laboratory, Me., USA) within 5-7 seconds. […] Tumors were evaluated using fluorescence imaging (IVIS imaging system, Xenogen Corp., Hopkinton, Mass.) and immunohistochemistry (H&E). Tumor volume was measured using a caliper.

Data set [5] can be described thus: Nanoparticle formation with indocyanine IR783 by nano-precipitation (DLS / visual precipitation).

As for `CC1(C)C(=CC=C2CCCC(C=CC3=[N+](CCCCS(=O)(=O)[O-])c4ccccc4C3(C)C)=C2Cl)N(CCCCS(=O)(=O)[O-])c2ccccc21.[Na+]` [IR783, 2-[2-[2-Chloro-3-[2-[1,3-dihydro-3,3-dimethyl-1-(4-sulfobutyl)-2H-indol-2-ylidene]-ethylidene]-1-cyclohexen-1-yl]-ethenyl]-3,3-dimethyl-1-(4-sulfobutyl)-3H-indolium hydroxide, inner salt sodium salt], in data set [1], the “uptake (internalization) in cell lines” value was “does not internalize in the cells”. Further, the “accumulation in liver tumors” value was “did not accumulate in tumors” in data set [2] (listed as free indocyanine) and “does not accumulate” in data set [2]. Moreover, in data set [3], the “effect on cells after NIR irradiation” value is on record as “no significant effect”.
Take `CNC(=O)c1cc(Oc2ccc(NC(=O)Nc3ccc(Cl)c(C(F)(F)F)c3)cc2)ccn1` [Sorafenib]: in data set [4], the “anti-tumor efficacy in liver tumor model” value was “multiple liver tumors”.
In the case of `Cc1onc(-c2ccccc2)c1-c1ccc(S(N)(=O)=O)cc1` [Valdecoxib], the “formation of nanoparticles with indocyanine” value in data set [5] is “did not”.
